Results taken from ChEMBL document CHEMBL1133885, “A short synthesis of argatroban. a potent selective thrombin inhibitor” (Bioorg Med Chem Lett, 2001).

Assay: Concentration required for 50% inhibition of thrombin induced platelet aggregation
Assay type: functional

IC50: 9 nM
Structure (SMILES): C[C@@H]1CCN(C(=O)[C@H](CCCNC(=N)N)NS(=O)(=O)c2cccc3c2NC[C@H](C)C3)[C@@H](C(=O)O)C1 [ARGATROBAN]
